Source: US10288604B2, “Method for imaging cell using fluorescence-labeled sugar derivative having coumarin derivative bound thereto, and imaging agent” (HIROSAKI UNIVERSITY, priority 2012, dated 2019)

Columns and labels:
[1] = test system: neurons acutely dissociated from mouse midbrain substantia nigra pars reticulata; experiment: Application of fluorescent sugar derivatives to acutely dissociated normal neurons (confocal imaging of uptake); format: cell-based
Experimental: This was conducted according to a method described in WO 2010/16587.
Living neurons were acutely dissociated from mouse midbrain substantia nigra pars reticulata, and to which a mixed solution containing 100 μM of 2-PBDG and 20 μM of 2-TRLG was administered at 37° C. for 5 minutes. FIGS. 1A to C represent confocal microscopic images taken immediately before this. A is a fluorescence image in blue wavelength region (Blue channel, wavelength range: 415-580 nm). The position of cells is recognized by autofluorescence. The fluorescence signal intensity is represented by pseudocolor. B is a fluorescence image in red wavelength region (Red channel, 580-740 nm). A and B were obtained both by simultaneous excitation using 405 nm Blue diode laser at an intensity of 60%, wherein photomultipliers (PMT) 1 and 2 were used respectively, and the detection sensitivity of PMT2 was raised higher than PMT1 so that the presence or absence of invasion of 2-TRLG can be detected in a sensitive manner. C is a view in which the bright field image is overlaid on the fluorescence images of A and B.
An experiment was conducted in the same manner as in Example 2.
FIGS. 2A to C represent confocal microscopic images immediately before administration of a mixed solution containing 100 μM of 2-PBLG and 20 μM of 2-TRLG at 37° C. to acutely dissociated neurons of mouse midbrain substantia nigra pars reticulata for 5 minutes.
FIG. 3 represents confocal microscopic images before and after administration of a mixed solution containing 100 μM of 2-HCDG and 20 μM of 2-TRLG at 37° C. for 3 minutes to neurons acutely dissociated from mouse midbrain substantia nigra pars reticulata. A and B are fluorescence images acquired before administration in Blue channel (415-580 nm) and Red channel (580-740 nm), respectively. The excitation wavelength is 405 nm. C is an image of differential interference (Differential Interference contrast, DIC). D is an overlay of the above-described images. E to H are the same as A to D, excepting that E to H are images acquired 4 minutes after initiation of washout of the fluorescence tracer solution after administration of the 2-HCDG+2-TRLG fluorescence tracer solution at 37° C. for 3 minutes. […] Since invasion of 2-TRLG into a cell is not observed, the plasma membrane of the neuron is thought to be maintained intactly.
Since the optimal excitation wavelength was as very low as 320 nm in this experiment, an image was acquired by Retiga-2000R CCD camera manufactured by Q-imaging via a custom-order filter constituted of an excitation filter (320 nm) (half width: 40 nm), a fluorescence filter (435 nm) (half width: 40 nm) and a dichroic mirror (409 nm), by a xenon lamp, using Nikon Ti-E real time deconvolution microscope.

[2] = test system: mouse insulinoma cells (MIN6); experiment: Uptake into MIN6 cells and influence of glucose transport inhibitors (fluorescent microplate reader); format: cell-based
Experimental: Cryopreserved MIN6 cells (cells donated from Professor Miyazaki Junichi of Osaka University and cultured 5 to 8 passages) were subjected to culture according to an ordinary method, and cultures at 7 to 9 passages were used in experiments.
NaCl 129.0 mM, KCl 4.75 mM, KH2 PO4 1.19 mM, MgSO4.7H2O 1.19 mM, CaCl2.2H2O 1.0 mM, NaHCO3 5.02 mM, D-Glucose 5.6 mM, HEPES 10 mM (pH was adjusted to 7.35 with 1M NaOH). For inhibiting entrance and elimination of a fluorescently labeled glucose via gap junction/hemichannel, 0.1 mM Carbenoxolone (SIGMA #C4790) was added. This KRB solution was used as a solution for preparing a 2-PBLG solution.
2-PBDG and 2-PBLG were charged into wells at the third column and the fifth column, respectively, using a 8-channel pipette. Before administration, the autofluorescence of each well was measured beforehand by a fluorescent micro plate reader (Flex Station, manufactured by Molecular Device). The measurement conditions include Bottom Read, Ex 401 nm, Em 453 nm, Cut off 420 nm, Averaging 3, and high sensitivity of Photomultiplier. In the measurement method, Well Scan Mode was used. In Well Scan Mode, the inside of one well was divided into 9 regions of interest (diameter: 1.5 mm) and measurement was performed each independently.
Next, in wells (3C, 3E, 3G) for measuring the effect of a glucose transport inhibitor phloretin, phloretin (final 150 μM) was administered beforehand from 5 minutes prior to administration of 2-PBDG, while KRB was added to other wells (3B, 3D, 3F). Similar operation was also conducted on the fifth column where 2-PBLG was to be administered. 2-PBDG and 2-PBLG were administrated at 37° C. for 10 minutes.
After completion of administration, a diluting operation of the fluorescence solution in the well using 300 μL of a KRB solution was repeated set times each for 30 seconds. The repetition time was determined so that the fluorescence intensity detected by wells of A-th row and H-th row set as a control group was equivalent to the fluorescence intensity of a blank well containing no cell, and complete washout was confirmed in every experiment. In the case of 2-PBDG and 2-PBLG, this washout process needed 8 minutes, thus, measurement of fluorescence after administration was carried out 9 minutes after.
According to this method, even if cells having undergone a loss of the plasma membrane contacted 2-PBDG and 2-PBLG and once took up these compounds into themselves, it is judged that contribution of the increase in the fluorescence intensity to the whole observation area was ignorable level since these compounds had already been washed out of the cells when performing the measurement. This was supported by a pharmacological inhibition experiment separately in which the increase in the fluorescence intensity almost completely disappeared in the presence of an inhibitor. The above-described method was conducted in the same manner also when other inhibitor, for example, cytochalasin B (10 μM) was added.
The change of fluorescence intensity by administration of a D-glucose derivative (2-PBDG), an L-glucose derivative (2-PBLG) and PB—NH2 prepared by amidating Pacific Blue (PB) chromophore group to MIN6 cells on day of 10 of culture and the effect by a glucose transport inhibitor were confirmed in the same manner as in Example 4. PB—NH2 has the following structure (Ex max. 402 nm, Em max. 451 nm).
An experiment was conducted in the same manner as in Example 4.
The experiment was carried out 3 times independently, and the same results were obtained in all cases. In the experiment of administration of 2-PBDM, excitation occurred at a maximum excitation light wavelength of 404 nm and fluorescence was acquired at a maximum emission wavelength of 453 nm.

Question: What does the source list for `O=C(NC1C(O)OC(CO)[C@H](O)C1O)c1cc2cc(F)c(O)c(F)c2oc1=O` (stereo partly drawn) [2-PBLG, 2-Deoxy-2-((6,8-difluoro-7-hydroxycoumarin-3-yl)carboxamido)-L-glucose]?
Answer: intracellular fluorescence intensity in Blue channel as compared with that before administration ([1]; 100 μM with 20 μM 2-TRLG, 37° C., 5 minutes, image 4 minutes after initiation of washout): scarcely increased; persistence of intracellular blue fluorescence after washout ([1]; images 8 and 20 minutes after initiation of washout): recovered to the autofluorescence level; decreased value of fluorescence intensity owing to phloretin (average) ([2]; 100 μM derivative, 150 μM phloretin, MIN6 day 10, increase without phloretin as reference): 20.0%; effect of phloretin on increase in fluorescence intensity (in words) ([2]; 100 μM derivative, phloretin 150 μM, MIN6 day 10): inhibited the increase in the fluorescence intensity by 2-PBLG slightly; difference between fluorescence intensity of 2-PBDG and of 2-PBLG ([2]; 100 μM each, absence of phloretin, 2-PBDG = 100%): no significant difference; fluorescence intensity after administration as compared with that before administration ([2]; 100 μM, MIN6 on day 10 of culture, Ex 401 nm, Em 453 nm): increases significantly
